Molecules are shown by their SMILES.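 Cultured in 96-well plates, cells were exposed to test compound for 48 hours across five concentrations. The concentration for full growth arrest is given as TGI.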 A value given as a limit tells only on which side of the number the result lay.

The values that follow come from PubChem BioAssay (NCI).

Assay in all cases: NCI anticancer screen, dose series, 48 h
Experiment [1] has as its system RPMI-8226 leukemia.
Experiment [2] concerns SK-OV-3 ovarian.
For experiment [3], the system named is SK-MEL-28 melanoma.
The test system of experiment [4] is CCRF-CEM leukemia.
The test system of experiment [5] is SF-295 CNS.
Experiment [6] concerns SK-MEL-2 melanoma.
Experiment [7] relates to OVCAR-5 ovarian.
In experiment [8] the test system is HL-60(TB) leukemia.
The subject of experiment [9] is MALME-3M melanoma.
Experiment [10] concerns OVCAR-8 ovarian.
Experiment [11] deals with SK-MEL-5 melanoma.

For `CCC1(CCSC(=N)N)C(=O)NC(=O)NC1=O`, the TGI in [1], in experiment [2], in [3], in experiment [4], in experiment [5] and in experiment [6] was more than 100 µM throughout. The TGI in [7], in experiment [8], in experiment [9], in [10] and in [11] was more than 100 µM throughout.

On to `C=C1CC[C@@H](Br)C(C)(C)[C@]12CCC(C)(O)C(Cl)C2` (some centres not stated), for which the TGI in experiment [1] worked out at 40.2 µM; in experiment [2] it was 37.4 µM; in experiment [3], 40.2 µM; in experiment [4], 47.9 µM; in [5] it was 43.1 µM; in [6], 39.7 µM. The TGI in [7] was 36.9 µM; in experiment [8], 42.2 µM; in experiment [9], 86.2 µM; in experiment [10], 37 µM; in [11], 35.7 µM.

In the case of `O=C(O)NCc1ccccc1` (tested in a mixture with another compound), the TGI in [1] was 31.1 µM; in [2], more than 100 µM; in [3], more than 100 µM; in [4], 51.7 µM; in [5], more than 100 µM; in [6], 33.7 µM. Further, the TGI in experiment [7] was more than 100 µM; in experiment [8] it was 48.9 µM; in experiment [9], 85.9 µM; in [10], more than 100 µM; in experiment [11], 33.4 µM.

For `CC(=O)OC/C=C/Cn1ncc(=O)[nH]c1=O`, the TGI in [1], in [3], in experiment [6], in [7], in experiment [8] and in experiment [9] was more than 100 µM throughout. Besides, the TGI in [10] and in [11] was more than 100 µM each time.

As for `O=[As](O)(O)c1ccc(N=Nc2ccc([As](=O)(O)O)cc2)cc1`, the TGI in [3], in experiment [5], in experiment [6], in experiment [7], in experiment [8] and in experiment [9] was more than 100 µM each time. The TGI in [10] and in [11] was more than 100 µM each time.

Regarding `Nc1nncc2c1ccn2C1OC(CO)C(O)C1O` (configuration not stated), the TGI in experiment [1], in experiment [2], in experiment [3], in [4], in [5] and in experiment [6] was more than 100 µM throughout. In addition, the TGI in experiment [7], in [8], in experiment [9], in experiment [10] and in experiment [11] was more than 100 µM each time.

Turning to `O=C(O)CCSCc1ccc(I)cc1`, the TGI in experiment [1], in experiment [2], in experiment [3], in [4], in [5] and in experiment [6] was more than 100 µM throughout. For the same molecule, the TGI in [7], in experiment [8], in experiment [9], in experiment [10] and in experiment [11] was more than 100 µM throughout.

For `COc1cc(N/N=C/C#N)cc(OC)c1OC`, the TGI in experiment [1] is 5.68 µM; in [2], more than 10 µM; in experiment [3], more than 10 µM; in experiment [4] it was more than 10 µM; in experiment [5], more than 10 µM; in experiment [6], more than 10 µM. Further, the TGI in [7] is more than 10 µM; in [8], 5.64 µM; in experiment [9] it was more than 10 µM; in [10], more than 10 µM; in experiment [11] it was more than 10 µM.

As to `Cc1cc2c(cc1C)[n+](=O)c(C#N)c(Cl)n2[O-]`, the TGI in [1] is 55.6 µM; in experiment [2] it was 70.5 µM; in [3], 42.5 µM; in [4] it was 45.3 µM; in experiment [5], more than 100 µM; in experiment [6], 92.5 µM. Besides, the TGI in experiment [7] was found to be 25.8 µM; in experiment [8], 84.3 µM; in [9] it was 30 µM; in experiment [10] it was 53.2 µM; in experiment [11], 29 µM.

With `O=C(CCl)NC(Cc1ccc(F)cc1)C(=O)O` (configuration not stated), the TGI in experiment [1], in experiment [2], in experiment [3], in [4], in experiment [5] and in [6] was more than 100 µM each time. For the same molecule, the TGI in experiment [7], in [8], in experiment [9], in experiment [10] and in experiment [11] was more than 100 µM each time.

Take `CCOC(=O)[C@H]1Nc2c(cccc2[N+](=O)[O-])[C@H]2OCC[C@@H]12`: the TGI in experiment [1], in [3], in experiment [5], in experiment [6], in experiment [7] and in experiment [9] was more than 100 µM throughout. Moreover, the TGI in [10] and in [11] was more than 100 µM each time.

Turning to `CC(C)OC(=O)C1=C(O)c2ccccc2S(=O)(=O)N1`, the TGI in [2], in experiment [3], in [4], in [5], in experiment [6] and in experiment [7] was more than 100 µM in each case. Moreover, the TGI in experiment [9], in experiment [10] and in experiment [11] was more than 100 µM each time.

Regarding `Nc1c(-c2nc3ccccc3o2)sc(=S)n1-c1ccc(Cl)cc1`, the TGI is more than 100 µM in [1]; 33.2 µM in experiment [2]; 37.7 µM in experiment [3]; more than 100 µM in experiment [4]; 27.3 µM in experiment [5]; 47.8 µM in experiment [6]. For the same molecule, the TGI was more than 100 µM in experiment [7]; more than 100 µM in [8]; 56.5 µM in [9]; 30.2 µM in experiment [10]; 56.9 µM in experiment [11].
